Assay results published in patent US9439436B2, “Use of aryl carbamates in agriculture and other plant-related areas” (North Carolina State University, priority 2010, dated 2016).

How the values were obtained:
bacteria = conditions: literature statement; cited from earlier work
[1] = system: methicillin-resistant S. aureus (MRSA); experiment: biofilm inhibition, crystal violet reporter assay; assay type: cell-based
[2] = system: multi-drug resistant Acinetobacter baumannii (MDRAB); experiment: biofilm inhibition, crystal violet reporter assay; assay type: cell-based
E. coli = experiment: biofilm inhibition, crystal violet reporter assay; assay type: cell-based
S. epidermidis = experiment: biofilm inhibition, crystal violet reporter assay; assay type: cell-based
[3] = system: vancomycin-resistant Enterococcus faecium (VRE); experiment: biofilm inhibition, crystal violet reporter assay; assay type: cell-based
R. salexigens [4] = experiment: biofilm inhibition, crystal violet reporter assay; assay type: cell-based, Rhodospirillum salexigens
R. salexigens [5] = conditions: reported by Yamada et al.; cited from earlier work
[6] = system: S. aureus strains 29213, 29740, and 25923; experiment: testing of the library on S. aureus strains; assay type: cell-based; conditions: refers to Tables 2 and 3, not given

Row | SMILES | melting point [°C] | further results
1 | CC(C)CCC[C@@H](C)C1CCC2[C@@H]3CC=C4C[C@@H](OC(=O)NCCc5ccc(Br)cc5)CC[C@]4(C)[C@H]3CC[C@]12C (some centres unmarked) | 142 to 145 | 
2 | CC(C)CCC[C@@H](C)C1CCC2[C@@H]3CC=C4C[C@@H](OC(=O)NCCc5ccccc5)CC[C@]4(C)[C@H]3CC[C@]12C (some centres unmarked) | 74 to 76 | 
3 | CC(C)CCC[C@@H](C)C1CCC2[C@@H]3CC=C4C[C@@H](OC(=O)NC5Cc6ccccc6C5)CC[C@]4(C)[C@H]3CC[C@]12C (some centres unmarked) | 114 to 116 | 
4 | CC(C)CCC[C@@H](C)C1CCC2[C@@H]3CC=C4C[C@@H](OC(=O)NCCCc5ccccc5)CC[C@]4(C)[C@H]3CC[C@]12C (some centres unmarked) | 87 to 89 | 
5 | CC(C)CCC[C@@H](C)C1CCC2[C@@H]3CC=C4C[C@@H](OC(=O)NCCn5nccn5)CC[C@]4(C)[C@H]3CC[C@]12C (some centres unmarked) | 135 to 139 | 
6 | CC(C)CCC[C@@H](C)C1CCC2[C@@H]3CC=C4C[C@@H](OC(=O)N5CCc6ccccc65)CC[C@]4(C)[C@H]3CC[C@]12C (some centres unmarked) | 157 to 159 | 
7 | CC(C)CCC[C@@H](C)C1CCC2[C@@H]3CC=C4C[C@@H](OC(=O)N5CCCc6ccccc65)CC[C@]4(C)[C@H]3CC[C@]12C (some centres unmarked) | 107 to 110 | 
8 | CC1CCC(C(C)C)C(O)C1 (single isomer, unassigned; (-)) [(−)-menthol] |  | antimicrobial activity (bacteria): known to possess antimicrobial activity
9 | CC(C)[C@@H]1CC[C@@H](C)C[C@H]1OC(=O)NCCc1ccccc1 [Compound 2a, (1R, 2 S, 5R)-2-isopropyl-5-methylcyclohexyl phenethylcarbamate] | 84 to 86 | 
10 | CCOC(=O)NCCc1ccccc1 [Compound 2d, ethyl N-(2-phenethyl) carbamate] |  | % Inhibition (200 μM 2d) of biofilm formation ([1]; 200 μM, MRSA): 68.1%; % Inhibition (200 μM 2d) of biofilm formation [2]: 52.0%; % Inhibition (200 μM 2d) of biofilm formation (E. coli): 40.8%; % Inhibition (200 μM 2d) of biofilm formation (S. epidermidis): 63.1%; % Inhibition (200 μM 2d) of biofilm formation [3]: 80.2%; % Inhibition (200 μM 2d) of biofilm formation (R. salexigens [4]): 59.7%; antibiofilm activity against Rhodospirillum salexigens (R. salexigens [5]): moderate antibiofilm activity
11 | CCNC(=O)NCCc1ccccc1 [Compound 2g, 1-ethyl-3-phenethylurea] | 75 to 77 | 
12 | CCNC(=S)NCCc1ccccc1 [Compound 2h, 1-ethyl-3-phenethylthiourea] | 56 to 58 | 
13 | CC(C)[C@@H]1CC[C@@H](C)C[C@H]1OC(=O)NC1Cc2ccccc2C1 [Compound 3a, (1R, 2 S, 5R)-2-isopropyl-5-methylcyclohexyl 2,3-dihydro-1H-inden-2-ylcarbamate] | 167 to 170 | 
14 | CCSC(=O)NC1Cc2ccccc2C1 [Compound 3b, S-ethyl 2,3-dihydro-1H-inden-2-ylcarbamothioate] | 107 to 110 | 
15 | O=C(NC1Cc2ccccc2C1)OCc1ccccc1 [Compound 3c, benzyl 2,3-dihydro-1H-inden-2-ylcarbamate] | 159 to 161 | 
16 | CC(C)(C)OC(=O)NC1Cc2ccccc2C1 [Compound 3e, tert-butyl 2,3-dihydro-1H-inden-2-ylcarbamate] | 51 to 53 | 
17 | CCNC(=O)NC1Cc2ccccc2C1 [Compound 3g, 1-(2,3-dihydro-1H-inden-2-yl)-3-ethylurea] | 117 | 
18 | CCNC(=S)NC1Cc2ccccc2C1 [Compound 3h, 1-(2,3-dihydro-1H-inden-2-yl)-3-ethylthiourea] | 87 to 91 | 
19 | CC(C)[C@@H]1CC[C@@H](C)C[C@H]1OC(=O)NCCCc1ccccc1 [Compound 4a, (1R, 2 S, 5R)-2-isopropyl-5-methylcyclohexyl 3-phenylpropylcarbamate] | 75 to 78 | 
20 | CCNC(=O)NCCCc1ccccc1 [Compound 4g, 1-ethyl-3-(3-phenylpropyl)urea] | 48 | 

Row | SMILES | melting point [°C] | further results
21 | CCNC(=S)NCCCc1ccccc1 [Compound 4h, 1-ethyl-3-(3-phenylpropyl)thiourea] | 51 to 53 | 
22 | CC(C)(C)OC(=O)NCCn1nccn1 [Compound 5e, tert-butyl 2-(2H-1,2,3-triazol-2-yl)ethylcarbamate] | 64 to 66 | 
23 | CCNC(=O)NCCn1nccn1 [Compound 5g, 1-(2-(2H-1,2,3-triazol-2-yl)ethyl)-3-ethylurea] | 109 | 
24 | CCNC(=S)NCCn1nccn1 [Compound 5h, 1-(2-(2H-1,2,3-triazol-2-yl)ethyl)-3-ethylthiourea] | 91 to 93 | 
25 | CCNC(=O)N1CCc2ccccc21 [Compound 6g, N-ethylindoline-1-carboxamide] | 111 to 113 | 
26 | CCNC(=S)N1CCc2ccccc21 [Compound 6h, N-ethylindoline-1-carbothioamide] | 88 to 91 | 
27 | CCNC(=S)N1CCCc2ccccc21 [Compound 7h, N-ethyl-3,4-dihydroquinoline-1(2H)-carbothioamide] | 55 to 57 | 
28 | Nc1ccc(CCNC(=O)OCc2ccccc2)cc1 [Compound 8c, benzyl 4-aminophenethylcarbamate] | 70 to 73 | 
29 | CCNC(=O)NCCc1ccc(N)cc1 [Compound 8g, 1-(4-aminophenethyl)-3-ethylurea] | 101 to 103 | 
30 | CC(C)[C@@H]1CC[C@@H](C)C[C@H]1OC(=O)NCCc1ccccn1 [Compound 9a, (1R, 2 S, 5R)-2-isopropyl-5-methylcyclohexyl 2-(pyridin-2-yl)ethylcarbamate] | 59 to 63 | activity against 29213, 29740, and 25923 (in words) [6]: worked well; IC50 values against MRSA (in words) ([1]; refers to Tables 2 and 3, not given): lowest IC50 values
31 | CC(C)[C@H]1CC[C@H](C)C[C@@H]1OC(=O)NCCc1ccccn1 [Compound 9k, (1 S,2R, 5 S)-2-isopropyl-5-methylcyclohexyl 2-(pyridin-2-yl)ethylcarbamate] | 57 to 59 | 
32 | CCSC(=O)NCCc1c[nH]c2ccccc12 [Compound 10b, S-ethyl 2-(1H-indol-3-yl)ethylcarbamothioate] | 68 to 70 | 
33 | CCNC(=O)NCCc1c[nH]c2ccccc12 [Compound 10g, 1-(2-(1H-indol-3-yl)ethyl)-3-ethylurea] | 109 to 112 | 
34 | CC(C)[C@@H]1CC[C@@H](C)C[C@H]1OC(=O)NCCc1ccc(Br)cc1 [Compound 11a, (1R, 2 S, 5R)-2-isopropyl-5-methylcyclohexyl 4-bromophenethylcarbamate] | 104 to 106 | 
35 | CCOC(=O)NCCc1ccc(Br)cc1 [Compound 11d, ethyl 4-bromophenethylcarbamate] | 63 to 65 | 
36 | CCNC(=O)NCCc1ccc(Br)cc1 [Compound 11g, 1-(4-bromophenethyl)-3-ethylurea] | 137 to 139 | 
37 | COc1ccc(CCNC(=O)O[C@@H]2C[C@H](C)CC[C@H]2C(C)C)cc1 [Compound 12a, (1R, 2 S, 5R)-2-isopropyl-5-methylcyclohexyl 4-methoxyphenethylcarbamate] | 95 to 98 | 
38 | Cc1ccc(C(C)C)cc1O [carvacrol] |  | antimicrobial activity (bacteria): known to possess antimicrobial activity
39 | Cc1ccc(C(C)C)c(O)c1 [thymol] |  | antimicrobial activity (bacteria): known to possess antimicrobial activity
